112 molecules from a melting point compilation (Tetko et al.) can be followed below.

Usually melting point stands for the temperature of the solid-liquid transition.

In turn, `C=Cc1cccc(C(N)=O)c1` displayed a melting point of 133 °C. Under `CN(N)c1cnc2ccccc2n1` stands 107 to 108 °C; under `NS(=O)(=O)c1cc(Cl)cc(Cl)c1`, 170 to 172 °C; under `Fc1ccc2nc(C(F)(F)F)cc(Cl)c2c1`, 78 to 82 °C. As for `O=C(c1ccccc1)C1(O)CCCCC1`, the figure is 48 °C; as for `CC(=O)C(C=N)c1ccccc1` (configuration not stated), 96 °C; as for `C=Cc1c2ccccc2cc2ccccc12`, 64 to 66 °C.

For the molecule `CN(C)P(=O)(N(C)C)N(C)C`, the melting point was 7.2 °C. Regarding `N#CC1=C(N)Oc2c(c(C(F)(F)F)nn2-c2ccccc2)C1c1ccccc1` (configuration not stated), the melting point was determined as 191 °C. As for `NS(=O)(=O)c1ccc(SCCCO)c([N+](=O)[O-])c1`, the figure is 163 °C; as for `CC(C)(C)OC(=O)N1Cc2ccccc2C[C@H]1C(=O)O`, 125 to 126 °C. Consider `CCC1(C2CCC(OC)CC2)C(=O)NC(=O)NC1=O` (configuration not stated), for which the melting point is 239 to 240 °C. Under `O=C(O)c1sccc1-n1cccc1` stands 166 °C; under `CCCCCCCCCCCC(=O)OCC`, -2 °C.

Molecule `c1ccc(P(c2ccccc2)c2ccccc2Oc2ccccc2P(c2ccccc2)c2ccccc2)cc1` gave a melting point of 184 to 187 °C. Under `O=c1oc(=O)c2cc3c(=O)oc(=O)c3cc12` stands 283 to 287 °C; under `Cc1ccnc(C#N)c1`, 87 °C; under `CC(=O)N1C(=O)N(C(C)=O)C2C1N(C(C)=O)C(=O)N2C(C)=O` (configuration not stated), 234 to 238 °C. As for `CCOC(=O)c1c(C)nc2sc3c(c2c1N)CCCC3`, the figure is 135 to 136 °C; as for `CCOC(=O)CCN(Cc1ccccc1)SN(C)C(=O)ON=C(C)SC`, 47 °C. `NCCCC1C=NNC1=O` (configuration not stated) had a melting point of 216 °C.

Consider `CCC(Br)C(=O)O` (configuration not stated), for which the melting point was -4 °C. Under `Nc1cccc(S(N)(=O)=O)c1` stands 141 °C. As for `N#C/C(=N/Nc1cc(Cl)c(Cl)cc1Cl)c1nc2ccccc2c(=O)[nH]1`, the figure is 149 °C; as for `CN(C)c1ccc(N=Nc2ccc(N=C=S)cc2)cc1`, 167 to 171 °C. As for `CCCCCCCCCCCCOc1ccc(C(C)=O)cc1OCCCCCCCCCCCC`, the figure is 62 to 67 °C; as for `O=C1OC2(Cc3ccccc31)Cc1ccccc12` (configuration not stated), 88 °C; as for `COC(=O)c1ccc(CO)cc1`, 45 to 50 °C. As for `O=C(O)Cc1ccc2c(c1)NC(=O)C2`, the melting point came out at 238 °C. Under `CCCCCCCCCCCCCCCCC(=O)OCC` stands 28 °C.

As to `CCCC[N+](=O)[O-]`, the melting point was -81.3 °C. In the case of `CCCCO[Si](OCCCC)(OCCCC)OCCCC`, the melting point is -80 °C. As for `O=C1C(CCl)(CCl)CCC1(CCl)CCl`, the figure is 72 °C; as for `Cc1cc(C)c(-c2cc(C)[nH]n2)c(C)c1`, 128 to 130 °C; as for `C=C1C(=O)C23C4CC5C(C)(C)CCCC56COC(CC1C2OC(C)(C)O4)C63` (configuration not stated), 163 °C. As for `C#CC1(O)CCC2C3CCC4=CC(=O)CCC4C3CCC21CC` (configuration not stated), the figure is 240 °C. As to `CC(C)C(N)=NO`, the melting point lay within 60 to 61 °C.

`CC1(C)C(C=Cc2cc(Br)cc([N+](=O)[O-])c2[O-])=[N+](Cc2ccccc2)c2ccccc21`: the melting point came out at 208 °C.

`COC(=O)C1(O)c2ccccc2-c2ccc(Cl)cc21` (configuration not stated) showed a melting point of 155 °C. Under `O=C(O)C1CC(=O)N(Cc2ccc(F)cc2)C1` (configuration not stated) stands 150 to 151 °C; under `Nc1ncc(Cl)cc1[N+](=O)[O-]`, 193 °C; under `CCCCC=CC=CC=CCCCCCCCC(=O)O`, 71.5 °C.

In turn, `Cc1c(C)c(C)c2c(c1C)C(=O)CC2C(=O)O` (configuration not stated) gave a melting point of 214 °C. On to `O=C(O)c1ccc(Cn2cccn2)cc1`, for which the melting point is 192 to 193 °C. As for `c1ccc2nn(C3CCCCC3)nc2c1`, the figure is 46.5 °C; as for `C1=CCC(c2ccncc2)CC1` (configuration not stated), 22.1 °C. Under `CC(C)c1ccccc1C(C)C` stands -57 °C; under `O=C(CBr)c1cc(-c2ccc(Cl)cc2Cl)no1`, 85 to 87 °C. As for `CCCCCC#CCC(=O)O`, the figure is 17 °C; as for `CCCCCCCCCCCCCCCCS(=O)(=O)c1ccc(N)cc1`, 115 to 117 °C; as for `NN1C(=O)CSC1=S`, 102 °C. For the molecule `NS(=O)(=O)c1ccc(C(=O)O)cc1`, the melting point was 266 to 268 °C. As for `CCOC(=O)c1c(-c2ccc(OC)cc2)csc1N`, the figure is 75 °C. Under `NCCNc1ccc([N+](=O)[O-])cn1` stands 126 to 128 °C; under `O=C(Cc1ccccc1)C(c1ccccc1)N1CCCCC1` (configuration not stated), 137 °C. As for `c1csc(-c2cc[nH]n2)c1`, the figure is 97 to 99 °C; as for `COc1cc(OC)nc(NC(=O)NS(=O)(=O)c2ncccc2C(F)(F)F)n1`, 180 °C. `Clc1ncccc1-c1ccc(Br)cn1` showed a melting point of 132 °C. As for `Brc1ccc2c3c(cccc13)CC2`, the figure is 52 °C; as for `NNc1nccc(C(F)(F)F)n1`, 100 to 101 °C. `CC12CCC(=O)C=C1CCC1C2CCC2(C)C(OC(=O)CCC3CCCC3)CCC12` (configuration not stated) had a melting point of 155 °C.

For the molecule `CN(C)c1ccc(C=O)c(F)c1C#N`, the melting point was in the range of 125 to 127 °C. Consider `CC(c1ncncc1F)C(O)(Cn1cncn1)c1ccc(F)cc1F` (configuration not stated), for which the melting point was 128 °C. For `N#CCc1nc2ccccc2s1`, the melting point worked out at 102 °C. As for `O=C(O)c1ccc(C(F)(F)F)c(F)c1`, the figure is 175 °C; as for `OCC(F)(F)C(F)(F)C(F)(F)C(F)(F)C(F)(F)C(F)(F)C(F)(F)C(F)F`, 58 to 60 °C. `Cc1c(Cl)cc(Cl)c(O)c1Cl` had a melting point of 46 °C. Under `NNC(=S)NCc1ccccc1` stands 130 °C; under `CC(=O)C(=Nc1ccccc1)c1cc(C(=Nc2ccccc2)C(C)=O)c([N+](=O)[O-])cc1[N+](=O)[O-]`, 174 to 175 °C; under `COc1cc(F)c(F)cc1OC`, 40 °C.

Take `O=C(O)c1c(F)cnc(F)c1F`: the melting point turned out to be 110 °C.

Regarding `Cc1ccc(C=O)c(O)c1`, the melting point amounted to 60.5 °C. In the case of `CC1CCC2C1C1C(CCC2(C)O)C1(C)C` (configuration not stated), the melting point came out at 105 °C.

As to `C=C1C(C)CCC2(C)C3=C(C(=O)C4(CC4C)C(OC(C)=O)C3=O)C(OC(C)=O)C(O)C12` (configuration not stated), the melting point turned out to be 233 °C. Under `COc1cc([N+](=O)[O-])c2ncccc2c1` stands 159 °C; under `N#Cc1ccc(-c2cc[nH]n2)cc1`, 141 °C; under `CS(=O)(=O)CC#N`, 84 °C. As for `Cc1ccc2c(Cl)cc(Cl)c(O)c2n1`, the figure is 114 °C; as for `C=CCn1c(S)nnc1-c1ccc2ncccc2c1`, 211 to 214 °C. Under `Brc1ccc2nsnc2c1` stands 59 to 60 °C; under `O=C(O)c1ccccc1OC1CCOCC1`, 53 to 54 °C; under `CC1(C)C2CC3C(C2)C31C`, 67.5 °C. `N=C(N)NC(=O)Cc1c(Cl)cccc1Cl` showed a melting point of 226 °C. `COC1=C(OC)C(=O)C(C)=C(C)C1=O` returned a melting point of 62.5 °C. In turn, `Cc1ccc(C(=O)O)cc1Cl` gave a melting point of 208 to 209 °C. On to `CC(=O)OC1CCC2C3CCC4CC(CC(=O)O)CCC4(C)C3CCC12C` (configuration not stated), for which the melting point was in the range of 151 to 153 °C. Under `CC(=O)N(C(C)=O)c1ccc(N=Nc2ccccc2C)cc1C` stands 75 °C.

In turn, `CCCCCCCCCCC(C)O` (configuration not stated) yielded a melting point of 19 °C. For `C#CCOc1ccc(N)cc1C(=O)NCCCC`, the melting point was 84 °C. In turn, `CCCCCCCCCCCCOC(=O)c1ccccc1C(=O)OCCCCCCCCCCCC` came in with a melting point of 21 to 23 °C.

`COc1cccc(C#N)c1` registered a melting point of 23 °C. Under `Cc1ccc(-n2c(-c3cccnc3)noc2=S)cc1` stands 159 °C.

In turn, `CN1C(=O)c2ccc([N+](=O)[O-])cc2C1=O` displayed a melting point of 178 to 179 °C. Under `CCOC(=O)C(O)c1ccccc1` (racemic) stands 37 °C. Under `COc1ccc(-c2ccc(S(=O)(=O)NC(CCSC)C(=O)O)cc2)cc1` (configuration not stated) stands 174 °C; under `CC(=O)Nc1ccc(Cl)cc1Cl`, 147 °C; under `OCc1cc(O)cc(O)c1`, 181 to 186 °C. As for `C/C(CCc1oc2ccc([N+](=O)[O-])cc2c1-c1ccc(C)o1)=N/O`, the figure is 160 to 161 °C. With `CCN(CC)CCSC(=O)N(c1ccccc1)c1ccccc1`, the melting point came to 48 °C. Under `O=Cc1cnc(N2CCCCC2)s1` stands 49 °C. As for `CCOC(=O)NC(=S)Nc1cccc(C)n1`, the figure is 127 to 129 °C; as for `COC(=O)c1ccccc1S(=O)(=O)Cl`, 62 to 63 °C.

`OCC1OC(Oc2c[nH]c3ccc(Br)c(Cl)c23)C(O)C(O)C1O` (configuration not stated): the melting point was in the range of 249 to 251 °C. `CN1CCCN(c2ccc(CO)cc2)CC1`: the melting point was 97 °C. Under `Nc1ccc(N)cc1` stands 146 °C.

As for `O=[N+]([O-])c1ccc(Cl)c(N=C=S)c1`, the melting point fell in the range of 67 to 70 °C. Under `Cc1cc(C(=O)Cl)ccc1Br` stands 26 °C; under `CC(C)(C)N(NC(=O)c1ccccc1)C(=O)c1ccccc1F`, 184 °C. `COC(=O)c1csc(S(=O)(=O)Cl)c1OC` had a melting point of 93 to 96 °C. Under `O=[N+]([O-])c1cc([N+](=O)[O-])c(OCCO)cc1OCCO` stands 136 °C; under `CC(=O)c1csc([N+](=O)[O-])c1`, 59 to 61 °C.

For the molecule `O=C(O)COc1ccc(Cl)c(Cl)c1`, the melting point is 139 °C.
